ChEMBL document CHEMBL1201862, “PubChem BioAssay data set” (2004)
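These data come from cells grown in 96-well plates and exposed to compound for 48 hours at five concentrations. The concentration for 50% growth inhibition is given as GI50.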 Activity calls are given as the source filed them. Rule as the data show it: active = GI50 up to about 1.1 µM and inactive = higher.

Tests used:
Assay in all cases: NCI anticancer screen, dose series, 48 h
ACHN = system: ACHN
TK-10 = system: TK-10
HL-60 = system: HL-60
UACC-257 = system: UACC-257
OVCAR-3 = system: OVCAR-3
A549 = system: A549
CCRF-CEM = system: CCRF-CEM
DU-145 = system: DU-145
MDA-MB-231 = system: MDA-MB-231
UACC-62 = system: UACC-62
OVCAR-8 = system: OVCAR-8
SNB-75 = system: SNB-75
SK-OV-3 = system: SK-OV-3
SK-MEL-5 = system: SK-MEL-5
HOP-92 = system: HOP-92
HCC 2998 = system: HCC 2998
SK-MEL-2 = system: SK-MEL-2
SF-539 = system: SF-539
K562 = system: K562
SF-295 = system: SF-295

Measured: GI50

O=C1c2ccccc2CN1c1ccc(OCCN2CCCCC2)cc1
inactive: ACHN > 10 µM | TK-10 > 10 µM | HL-60 > 10 µM | UACC-257 > 10 µM | OVCAR-3 > 10 µM | A549 > 10 µM | CCRF-CEM > 10 µM | DU-145 > 10 µM | MDA-MB-231 > 10 µM | UACC-62 > 10 µM | OVCAR-8 > 10 µM | SNB-75 > 10 µM | SK-OV-3 > 10 µM | SK-MEL-5 > 10 µM | HOP-92 > 10 µM | HCC 2998 > 10 µM | SK-MEL-2 > 10 µM | SF-539 > 10 µM | K562 > 10 µM | SF-295 > 10 µM

CC(C)(C)[Si](C)(C)OC1CCOC1(O)c1ccccn1 (stereo not given)
inactive: ACHN > 100 µM | TK-10 > 100 µM | HL-60 32 µM | UACC-257 > 100 µM | OVCAR-3 > 100 µM | A549 > 100 µM | CCRF-CEM 88.3 µM | DU-145 > 100 µM | MDA-MB-231 > 100 µM | UACC-62 > 100 µM | OVCAR-8 > 100 µM | SNB-75 > 100 µM | SK-OV-3 > 100 µM | SK-MEL-5 > 100 µM | HOP-92 > 100 µM | HCC 2998 > 100 µM | SK-MEL-2 > 100 µM | SF-539 > 100 µM | K562 57.9 µM | SF-295 > 100 µM

CSc1ccc(NC(=O)CCl)cc1
inactive: ACHN > 10 µM | TK-10 > 10 µM | HL-60 3.33 µM | UACC-257 6.18 µM | OVCAR-3 3.75 µM | A549 2.44 µM | CCRF-CEM 2.43 µM | DU-145 > 10 µM | MDA-MB-231 7.31 µM | UACC-62 1.85 µM | OVCAR-8 3.51 µM | SNB-75 2.53 µM | SK-OV-3 > 10 µM | SK-MEL-5 2.08 µM | HOP-92 2.63 µM | HCC 2998 2.18 µM | SK-MEL-2 1.81 µM | SF-539 3.95 µM | K562 3.13 µM | SF-295 2.58 µM

Cc1c(O)c(OC2OC(CO)C(O)C(O)C2O)cc2c1CC[C@@H]1C2(C)C(=O)C[C@]2(C)[C@@H]([C@@](C)(O)C(O)/C=C/C(C)(C)O)[C@H](O)C[C@@]12C (stereo not given in full)
inactive: ACHN > 100 µM | TK-10 > 100 µM | HL-60 > 100 µM | UACC-257 > 100 µM | OVCAR-3 > 100 µM | A549 > 100 µM | CCRF-CEM > 100 µM | DU-145 > 100 µM | MDA-MB-231 > 100 µM | UACC-62 > 100 µM | OVCAR-8 > 100 µM | SNB-75 > 100 µM | SK-OV-3 > 100 µM | SK-MEL-5 > 100 µM | HOP-92 > 100 µM | HCC 2998 > 100 µM | SK-MEL-2 > 100 µM | SF-539 > 100 µM | K562 > 100 µM | SF-295 > 100 µM

O=C(NCC(=O)N1CCCC1C(=O)OC(=O)C1CCCN1C(=O)CNC(=O)OCc1ccccc1)OCc1ccccc1 (stereo not given)
inactive: ACHN 36.2 µM | TK-10 17.3 µM | HL-60 46.9 µM | UACC-257 16.7 µM | OVCAR-3 43.3 µM | A549 44.8 µM | CCRF-CEM 35.9 µM | DU-145 52 µM | MDA-MB-231 21.1 µM | UACC-62 14.7 µM | OVCAR-8 41.4 µM | SNB-75 14.9 µM | SK-OV-3 > 100 µM | SK-MEL-5 26.5 µM | HOP-92 31 µM | HCC 2998 32.7 µM | SK-MEL-2 20.4 µM | SF-539 24.5 µM | K562 31 µM | SF-295 22.1 µM

C[C@]12C=CC(=O)C=C1CC[C@@H]1[C@@H]2C(=O)C[C@@]2(C)[C@H]1CC[C@]2(O)C(=O)CO [PREDNISONE]
inactive: ACHN > 100 µM | TK-10 > 100 µM | HL-60 > 100 µM | UACC-257 > 100 µM | OVCAR-3 > 100 µM | A549 > 100 µM | CCRF-CEM > 100 µM | DU-145 > 100 µM | MDA-MB-231 > 100 µM | UACC-62 > 100 µM | OVCAR-8 > 100 µM | SNB-75 > 100 µM | SK-OV-3 > 100 µM | SK-MEL-5 > 100 µM | HOP-92 > 100 µM | HCC 2998 > 100 µM | SK-MEL-2 > 100 µM | SF-539 > 100 µM | K562 > 100 µM | SF-295 > 100 µM

Cc1cc(NC2=CC(=O)C(=O)c3ccccc32)no1
inactive: ACHN 11.7 µM | TK-10 26.1 µM | HL-60 6.22 µM | UACC-257 6.92 µM | OVCAR-3 3.85 µM | A549 5 µM | CCRF-CEM 9.66 µM | DU-145 16.4 µM | MDA-MB-231 2.83 µM | UACC-62 3.23 µM | OVCAR-8 6.81 µM | SNB-75 9.44 µM | SK-OV-3 19.4 µM | SK-MEL-5 2.26 µM | HOP-92 16.4 µM | HCC 2998 20.7 µM | SK-MEL-2 4.75 µM | SF-539 6.4 µM | K562 3.89 µM | SF-295 9.1 µM
